Test results reported in patent US20130129675A1, “INTERFERON THERAPIES IN COMBINATION WITH BLOCKADE OF STAT3 ACTIVATION” (BOARD OF REGENTS, THE UNIVERSITY OF TEXAS SYSTEM, priority 2009, published 2013).

What was measured:
Type in all cases: cell-based, human
[1] = system: STAT3 in HaCaT keratinocytes; test: pSTAT3 level in HaCaT keratinocytes (MSD chemiluminescent detection); conditions: pre-incubated
Method: Prior to experiments, the DMEM medium was changed to KGM-SFM containing rEGF and bovine pituitary extract for 12 hours, and the cells then exposed to various stimuli for 30 minutes. Cell lysates were extracted in IP lysis buffer were diluted in MSD extraction buffer and 25 uL of the cell lysate containing 10 ug protein was used in the analysis via chemiluminescent detection (MSD Technology). To test for inhibition by WP1220 (WP), cells were pre-incubated with WP1220 prior to the addition of IFN α.

[2] = system: HuT78 and HH CTCL cell lines; test: In vitro growth of CTCL cell lines
MJ cells = test: Caspase-3 induction in MJ cells; conditions: 10.0 uM, 24 hours
Method: (§1) HH, HuT78 and MJ cells were treated with vehicle alone or WP1220 for 24 hours. Total caspase-3 and cleaved caspase-3 levels were measured in 15 ug lysates by a meso-Scale 2400 imager. Results represent means fold stimulations compared to the controls based on duplicate samples (+++++=15-25 fold; ++++=10-15 fold; +++=5-10 fold; =/−=less than 2 fold.

HuT78 Cells = test: Caspase-3 and PARP cleavage in HuT78 cells
Method: (§2) To determine whether IFN alpha and beta were able to selectively phosphorylate STAT3 in other cell types. Studies were conducted in a range of other biologically relevant cell types. In these experiments, cells were grown in media supplemented with 10% FBS, and then serum starved for 18 hours and exposed to various stimuli for 30 minutes. […] (FIG. 10), and induced caspase-3 and PARP cleavage in these cells (Table E5)
as §1

HH cells = test: Caspase-3 and PARP cleavage in HH cells
Method: as §2, §1

[3] = system: STAT3 in HH, HuT78 and MJ CTCL lines; test: STAT3 tyrosine 705 phosphorylation in CTCL lines
Method: To determine whether IFN alpha and beta were able to selectively phosphorylate STAT3 in other cell types. Studies were conducted in a range of other biologically relevant cell types. In these experiments, cells were grown in media supplemented with 10% FBS, and then serum starved for 18 hours and exposed to various stimuli for 30 minutes.

C[C@H](NC(=O)/C(C#N)=C/C=C/c1cccc(Br)n1)c1ccccc1 [WP1220, (2E,4E)-5-(6-bromopyridin-2-yl)-2-cyano-N—((S)-1-phenylethyl)penta-2,4-dienamide]
pSTAT3 signal remaining after WP1220 pre-incubation ([1]; IFN α + WP 5 uM): +++ (+++=2,000-4,000)
pSTAT3 signal remaining after WP1220 pre-incubation ([1]; IFN α + WP 10 uM): ++ (++=2,000-1,500)
pSTAT3 signal remaining after WP1220 pre-incubation ([1]; IFN α + WP 20 uM): + (+=less than 1,500)
in vitro growth [2]: potently inhibiting the in vitro growth
induction of caspase-3 activity (fold stimulation compared to controls) (MJ cells): +++ (+++=5-10 fold)
Cleaved Caspase (HuT78 Cells; 5.0 uM): ++++ (++++=60,000-40,000)
Cleaved PARP (HuT78 Cells; 5.0 uM): ++++ (++++=7,000-5,000)
Cleaved PARP (HuT78 Cells; 10.0 uM): +++ (+++=5,000-2000)
induction of caspase-3 activity (fold stimulation compared to controls) (HuT78 Cells; 10.0 uM, 24 hours): ++++ (++++=10-15 fold)
Cleaved Caspase (HH cells; 5.0 uM): ++++ (++++=60,000-40,000)
Cleaved PARP (HH cells; 5.0 uM): +++++ (+++++=10,000-7,000)
Cleaved Caspase (HH cells; 10.0 uM): ++++ (++++=60,000-40,000)
Cleaved PARP (HH cells; 10.0 uM): +++ (+++=5,000-2000)
induction of caspase-3 activity (fold stimulation compared to controls) (HH cells; 10.0 uM, 24 hours): +++++ (+++++=15-25 fold)
relative level of activated pSTAT3 ([3]; HH cells): time dependent decrease
constitutive and interferon stimulated phosphorylation of STAT3 ([3]; HH, HuT78, MJ cells (FIG. 8A, B)): specifically blocked
